US20190256559A1, “PEPTIDOMIMETIC MACROCYCLES AND USES THEREOF” (AILERON THERAPEUTICS, INC., priority 2015, published 2019)
Entries after “also recorded” stand apart in the source; their conditions may differ. Where a SMILES comes first, the peptide text is derived from it. Bridges are numbered along the chain shown (N, C = ends). [ ]: non-standard residue; d: D form. R8 = C=CCCCCCC[C@@](C)(N)C(=O)O; S5 = C=CCCC[C@](C)(N)C(=O)O

Key:
[1] = Single-dose rat study of metabolism and elimination; format: in vivo
Excerpt: (§1) Proteolysis is the major biotransformation pathway of peptide 1. […] The predominant metabolite was also observed in the plasma in both the rat and monkey 4-week GLP toxicology studies, with adequate exposures in these studies to provide characterization of its impact on the overall safety profile of peptide 1. […] Accumulation of the predominant metabolite was not observed with repeated twice-weekly dosing in rats or monkeys.

[2] = system: human peripheral blood lymphocyte
[3] = system: cytochrome P450 (CYP) isoforms; test: In vitro cytochrome P450 inhibition; format: in vitro ADME
Excerpt: (§2) Inhibition or induction of cytochrome P450 (CYP) enzymes by peptide 1 appears to be negligible at clinically-relevant concentrations, although interactions are possible at high exposures of peptide 1 with drugs that are predominantly cleared by hepatobiliary transporters.
(§3) Based on these findings, the potential of clinically relevant drug-drug interactions for concomitant medications that are cleared through CYP-mediated mechanisms can be low.

[4] = 4-week rat GLP toxicity study, twice-weekly IV dosing (toxicity and toxicokinetics); format: in vivo, rats
Excerpt: (§4) The 4-week multiple-dose GLP studies in rats and monkeys utilized twice-weekly IV dosing of peptide 1. The studies provided dose- and exposure-related assessments during both dosing and recovery periods, and results were utilized to define the maximum tolerated doses (MTD) and estimate the severely toxic dose for 10% (STD10) of rats and the highest non-severely toxic dose (HNSTD) in monkeys. All gross and microscopic signs of intolerance (e.g., reduced organ weights, sporadic findings of multi-tissue hemorrhage and hepatic necrosis) and changes in serum chemistry parameters were considered as secondary to red blood cell (RBC), platelet and/or white blood cell (WBC) depletions or anorexia and dehydration in both species.

[5] = system: cytochrome P450 (CYP) enzymes; test: In vitro cytochrome P450 induction; format: in vitro ADME
Excerpt: as §2, §3

plasma protein = test: In vitro plasma protein binding; format: in vitro ADME, mouse, rat, dog, monkey, human; conditions: for free peptide 1 fraction: human and monkey plasma
Method: The in vitro protein binding of peptide 1 was evaluated over a range of concentrations in mouse, rat and monkey plasma, as well as human plasma samples from normal subjects and hypoalbuminemic patients.

BV-173 leukemia cells = test: Multiplexed cytotoxicity assay: relative cell count in BV-173 cells (wild type p53); format: cell-based; conditions: wild type p53, 72 h
Method: (§5) Cell lines from hematologic liquid cancer cells, characterized for p53 mutant/wild-type status, were seeded into 384-well plates and incubated in a humidified atmosphere of 5% CO2 at 37° C. Peptide 1 was serially diluted and assayed over 10 concentrations, up to 30 μM, in a final assay concentration of 0.1% DMSO. Treatment was added 24 hours post cell seeding, when a time zero untreated cell plate was also generated to determine the number of doublings in the 72 hour assay period. About one hundred cells per well were evaluated, with each test condition run in duplicate wells. After a 72 hour incubation period, cells were fixed and stained with fluorescently labeled antibody and nuclear dye. In the same wells, nuclei were assessed for toxicity (dye uptake) by automated fluorescence microscopy; apoptosis was assayed by elevations in anti-active caspase-3 antibody; and cell cycle arrest was assayed by elevations in anti-p21 monoclonal antibody EA10.
(§6) Cell proliferation was measured by relative cell count, which was expressed as percent of control.
Those that did were most often characterized by significant inductions of both caspase-3 and p21. Results with BV-173 leukemia cells (Table 16) are representative of the typical responses with these cell lines.

[6] = system: hematologic cancer cell lines with wild-type p53; test: Multiplexed cytotoxicity assay: cell proliferation/cytotoxicity (relative cell count), 72 h, cell lines with wild-type p53; format: cell-based; conditions: liquid cancer cells expressing WT p53 protein
[7] = system: MV 4; 11 human leukemia xenograft; test: MV 4;11 human leukemia (AML) xenograft model, survival; format: in vivo; conditions: mice, 25 mg/kg, six bi-weekly doses
Method: In another study, MV 4; 11 human leukemia xenograft model was used in mice to assess the ability of peptide 1 to inhibit tumor growth and improve overall survival in AML, a highly aggressive liquid tumor. In this study, 25 mg/kg dose of peptide 1 was administered in six bi-weekly doses and compared to the results of mice treated with only cyclophosphamide, the control group. Mice were monitored individually for an endpoint of morbidity due to progression of the leukemia. All ten mice that received the control exited the study between days 21 and 28, offering a sensitive assay for activity.

[8] = system: bacterial mutagenicity (Ames); test: Bacterial mutagenicity (Ames)
Excerpt: (§7) Peptide 1 was negative in genetic toxicology studies, including bacterial mutagenicity (Ames), chromosomal aberrations (human peripheral blood lymphocyte) and in vivo micronucleus (rat bone marrow) assays.

[9] = 4-week monkey GLP toxicity study, twice-weekly IV dosing (toxicity and toxicokinetics); format: in vivo, monkeys
Excerpt: as §4

rat bone marrow = test: In vivo micronucleus assay
Excerpt: as §7

[10] = Pharmacokinetic/toxicokinetic studies after IV administration in mice, rats and monkeys; format: in vivo
Excerpt: Pharmacokinetic studies characterize exposure kinetics following single IV administrations of peptide 1 in mice, rats and monkeys, including evaluations of two different dosing formulations in rats and monkeys. Using qualified liquid chromatography with tandem mass spectrometry (LC-MS-MS) methods for efficacy models and dose range-finding (DRF) studies, and validated methods for GLP safety studies, absorption was characterized in mice at the MED in efficacy models and in rats and monkeys at tolerated and non-tolerated doses in toxicology studies.

[11] = Preclinical GLP safety studies in rodents and monkeys (overall profile); format: in vivo
Excerpt: Genotoxicity, gastrointestinal toxicity, cardiotoxicity, and immunogenicity were not observed.

[12] = system: cryopreserved hepatocytes; test: In vitro metabolite profile / stability in cryopreserved hepatocytes; format: in vitro ADME, mouse, rat, monkey, and human
Excerpt: as §1

[13] = system: HEL-92-1-7 leukemia cells; test: Multiplexed cytotoxicity assay: relative cell count in HEL-92-1-7 cells (mutant p53); format: cell-based; conditions: mutant p53, 72 h
Method: as §5
(§8) Cell proliferation was measured by relative cell count, which was expressed as percent of control. […]
Results with HEL-92-1-7 leukemia cells (Table 17) are representative of the typical responses with these cell lines.

activated caspase-3 = test: Multiplexed cytotoxicity assay: activated caspase-3 (apoptosis) induction in p53 wild-type hematopoietic cell lines; format: cell-based
Method: as §5, §6

[14] = system: liquid cancer cell lines with mutant p53; test: Multiplexed cytotoxicity assay: cell proliferation/cytotoxicity (relative cell count), 72 h, cell lines with mutant p53; format: cell-based
Method: The objective of this study was to concurrently evaluate peptide 1-induced cytotoxicity, p21 up-regulation and caspase-3 activation in multiple liquid cancer cell cell lines characterized as having either wild-type or mutated p53 in order to determine whether the cytotoxicity is PD-mediated.
as §5, §8

p21 = test: Multiplexed cytotoxicity assay: p21 induction in p53 wild-type hematopoietic cell lines; format: cell-based
Method: as §5

[15] = in vivo, intravenous, 4-week rat GLP toxicity study, range over doses
[16] = in vivo, intravenous, 4-week monkey GLP toxicity study, range over doses

## CC(=O)N[C@@H](CC(C)C)C(=O)N[C@H](C(=O)N[C@@H](Cc1ccccc1)C(=O)N[C@]1(C)CCCCCC/C=C/CCC[C@@](C)(C(=O)N[C@@H](C)C(=O)N[C@@H](C)C(=O)N[C@@H](C)C(=O)N[C@@H](C)C(=O)N[C@@H](C)C(=O)N[C@H](C)C(N)=O)NC(=O)[C@H](CC(C)C)NC(=O)[C@H](CCC(N)=O)NC(=O)[C@H](C)NC(=O)[C@H](Cc2c[nH]c3ccccc23)NC(=O)[C@H](Cc2ccc(O)cc2)NC(=O)[C@H](CCC(=O)O)NC1=O)[C@@H](C)O [peptide 1] (Ac-LTF[R8]EYWAQL[S5]AAAAA[dA]-NH2; staple (E) 4-11)
[1]
  predominant clearance pathway: hepatobiliary metabolism and elimination
[2]
  chromosomal aberrations: negative
[3]
  inhibition of cytochrome P450 (CYP) isoforms: negligible; also recorded: not an inhibitor
[4]; [15]
  Cmax: 49.9 to 186 µg/mL
  clearance: 0.32 to 0.472 mL/min/kg
[4]; in vivo, intravenous, 4-week rat GLP toxicity study, range over doses, read-out: AUC0-∞
  AUC(0-inf): 90.5 to 562 µg·h/mL
[4]; in vivo, intravenous, rat, 10 mg/kg, read-out: AUC0-∞ at rat STD10
  AUC(0-inf): 562 µg·h/mL
[4]; rat, 4-week GLP toxicology study
  predominant metabolite exposure relative to peptide 1 AUC: 6%
[4]; rats
  dose proportionality of Cmax and AUC: linear, dose-proportional increases
[4]; rats, twice-weekly IV, 4 weeks
  STD10 (severely toxic dose for 10%): 10 mg/kg
[5]
  induction of cytochrome P450 (CYP) enzymes: negligible; also recorded: did not indicate any significant treatment-related effects
Plasma protein; concentrations >200 μM
  free peptide 1 fraction: 12-14%
Plasma protein; concentrations up to 150 μM
  free peptide 1 fraction: 3-4%
Plasma protein; mouse and rat plasma up 250 µM
  fraction unbound: < 0.02
Plasma protein; mouse, rat, dog, monkey, human, plasma of mice, rats, dogs, monkeys, and humans
  fraction unbound: 0.02 to 0.08
BV-173 leukemia cells; 3.00E+00 μM
  Relative Cell Count (%) Mean: 15.0%
BV-173 leukemia cells; 3.00E+01 μM
  Relative Cell Count (%) Mean: 2.2%
BV-173 leukemia cells; 3.01E−01 μM
  Relative Cell Count (%) Mean: 31.8%
BV-173 leukemia cells; 3.01E−02 μM
  Relative Cell Count (%) Mean: 84.8%
BV-173 leukemia cells; 3.02E−03 μM
  Relative Cell Count (%) Mean: 99.9%
BV-173 leukemia cells; 9.49E+00 μM
  Relative Cell Count (%) Mean: 4.3%
BV-173 leukemia cells; 9.51E−01 μM
  Relative Cell Count (%) Mean: 14.3%
BV-173 leukemia cells; 9.52E−02 μM
  Relative Cell Count (%) Mean: 64.4%
BV-173 leukemia cells; 9.53E−03 μM
  Relative Cell Count (%) Mean: 94.9%
BV-173 leukemia cells; 9.55E−04 μM
  Relative Cell Count (%) Mean: 100.8%
[6]
  activity in in vitro liquid cancer cell growth assays: demonstrates activity
[7]
  median overall survival: 40 days
[8]
  bacterial mutagenicity (Ames): negative
[9]; 20 mg/kg, 4-week monkey GLP toxicity study
  exposure at the high-dose group: apparent plateau in exposure
[9]; 4-week monkey GLP toxicity study, different dosings
  platelet response: dose-dependent decreases in platelets with recovery
[9]; [16]
  Cmax: 133 to 562 µg/mL
  clearance: 0.108 to 0.23 mL/min/kg
  half-life: 3.7 to 6 h
[9]; in vivo, intravenous, 4-week monkey GLP toxicity study, range over doses, read-out: AUC0-∞
  AUC(0-inf): 813 to 1600 µg·h/mL
[9]; in vivo, intravenous, monkey, 5 mg/kg, read-out: AUC0-∞ at HNSTD in monkeys
  AUC(0-inf): 813 µg·h/mL
[9]; monkey, 4-week GLP toxicology study
  predominant metabolite plasma exposure relative to AUC: 10%
[9]; monkeys, lowest dose level 5 mg/kg
  significant thrombocytopenia: complete lack of significant thrombocytopenia
[9]; monkeys, mid- and high-dose levels
  significant thrombocytopenia: only one animal
[9]; monkeys, twice-weekly IV, 4 weeks
  HNSTD (highest non-severely toxic dose): 5 mg/kg
[9]; non-human primates
  dose proportionality of exposure: increased proportionally with dose
Rat bone marrow
  in vivo micronucleus: negative
[10]; rats and monkeys
  dose proportionality of exposure: increased proportionally with dose
  sex-based differences in PK: No significant sex-based differences
[10]; rats and monkeys, twice-weekly schedule
  accumulation following multiple doses: no accumulation
[10]; repeated twice-weekly dosing in rats or monkeys
  accumulation of the predominant metabolite: not observed
[11]
  Genotoxicity: not observed
  Histopathology: bone marrow hypocellularity consistent with mild to moderate myelosuppression
  cardiotoxicity: not observed
  gastrointestinal toxicity: not observed
  immunogenicity: not observed
[12]; in vitro, across species
  major biotransformation pathway: Proteolysis
[12]; mouse, rat, monkey, and human cryopreserved hepatocytes
  metabolite profile across species: same metabolite profile
[13]; 3.00E+00 μM
  Relative Cell Count (%) Mean: 79.2%
[13]; 3.00E+01 μM
  Relative Cell Count (%) Mean: 67.9%
[13]; 3.01E−01 μM
  Relative Cell Count (%) Mean: 77.8%
[13]; 3.01E−02 μM
  Relative Cell Count (%) Mean: 89.8%
[13]; 3.02E−03 μM
  Relative Cell Count (%) Mean: 96.8%
[13]; 9.49E+00 μM
  Relative Cell Count (%) Mean: 76.9%
[13]; 9.51E−01 μM
  Relative Cell Count (%) Mean: 81.9%
[13]; 9.52E−02 μM
  Relative Cell Count (%) Mean: 89.7%
[13]; 9.53E−03 μM
  Relative Cell Count (%) Mean: 98.2%
[13]; 9.55E−04 μM
  Relative Cell Count (%) Mean: 98.5%
Activated caspase-3
  apoptotic response (activated caspase-3): robust apoptotic responses
[14]; cells with mutations of p53
  activity in in vitro liquid cancer cell growth assays: not in cells with mutations of p53
[14]; liquid cancer cell lines containing mutated p53
  character of cytotoxicity: cell cycle arrest without elevated apoptosis
p21
  induction of p21: significant induction of p21
